One block for each molecule: values may come before it. Calls of active or inactive are those of the source. The calls are words filed in the database; no cut-off is given here.
How the values were obtained:
[1] = Antioxidant activity assessed as DPPH radical scavenging activity; type: functional
[2] = target: T1, Nuclear factor erythroid 2-related factor 2 (Mus musculus) (UniProt Q60795); test: Activation of Nrf2 in mouse Hepa1c1c7 cells assessed as increase in NQO1 activity at 15 uM; type: cell-based; details: filed as activator
T1 sequence (whole entry): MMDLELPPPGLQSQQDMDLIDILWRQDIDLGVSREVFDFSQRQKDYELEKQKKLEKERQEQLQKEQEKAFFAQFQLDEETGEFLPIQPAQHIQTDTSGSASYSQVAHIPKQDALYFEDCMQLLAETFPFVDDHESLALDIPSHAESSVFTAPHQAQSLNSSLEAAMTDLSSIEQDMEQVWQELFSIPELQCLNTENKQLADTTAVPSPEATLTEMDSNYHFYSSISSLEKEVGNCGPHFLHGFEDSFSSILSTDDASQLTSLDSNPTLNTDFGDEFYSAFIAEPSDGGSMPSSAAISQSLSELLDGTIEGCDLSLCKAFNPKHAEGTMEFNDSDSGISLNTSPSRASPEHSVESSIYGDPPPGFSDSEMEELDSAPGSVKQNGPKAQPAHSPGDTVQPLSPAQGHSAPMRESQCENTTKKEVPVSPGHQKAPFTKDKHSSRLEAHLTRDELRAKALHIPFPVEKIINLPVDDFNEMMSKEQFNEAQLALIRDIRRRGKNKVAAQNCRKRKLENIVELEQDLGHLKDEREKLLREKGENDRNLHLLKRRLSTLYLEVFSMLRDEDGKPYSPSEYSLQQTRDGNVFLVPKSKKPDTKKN

[3] = target: T1, Nuclear factor erythroid 2-related factor 2 (Mus musculus); test: Activation of Nrf2 in mouse Hepa1c1c7 cells assessed as increase in NQO1 activity at 3.75 uM; type: cell-based; details: filed as activator
[4] = target: T1, Nuclear factor erythroid 2-related factor 2 (Mus musculus); test: Activation of Nrf2 in mouse Hepa1c1c7 cells assessed as increase in NQO1 activity at 7.5 uM; type: cell-based; details: filed as activator
[5] = target: T1, Nuclear factor erythroid 2-related factor 2 (Mus musculus); test: Activation of Nrf2 in mouse Hepa1c1c7 cells assessed as increase in NQO1 activity at 0.2 uM; type: cell-based; details: filed as activator
[6] = target: T1, Nuclear factor erythroid 2-related factor 2 (Mus musculus); test: Activation of Nrf2 in mouse Hepa1c1c7 cells assessed as increase in NQO1 activity at 0.9 uM; type: cell-based; details: filed as activator
[7] = target: T1, Nuclear factor erythroid 2-related factor 2 (Mus musculus); test: Activation of Nrf2 in mouse Hepa1c1c7 cells assessed as increase in NQO1 activity at 1.9 uM; type: cell-based; details: filed as activator
[8] = target: T1, Nuclear factor erythroid 2-related factor 2 (Mus musculus); test: Activation of Nrf2 in mouse Hepa1c1c7 cells assessed as increase in NQO1 activity at 30 uM; type: cell-based; details: filed as activator
[9] = target: T1, Nuclear factor erythroid 2-related factor 2 (Mus musculus); test: Activation of Nrf2 in mouse Hepa1c1c7 cells assessed as increase in NQO1 activity at 0.5 uM; type: cell-based; details: filed as activator
[10] = target: T1, Nuclear factor erythroid 2-related factor 2 (Mus musculus); test: Activation of Nrf2 in mouse Hepa1c1c7 cells assessed as increase in NQO1 activity at 0.313 uM; type: cell-based; details: filed as activator
[11] = target: T1, Nuclear factor erythroid 2-related factor 2 (Mus musculus); test: Activation of Nrf2 in mouse Hepa1c1c7 cells assessed as increase in NQO1 activity at 2.5 uM; type: cell-based; details: filed as activator
[12] = target: T1, Nuclear factor erythroid 2-related factor 2 (Mus musculus); test: Activation of Nrf2 in mouse Hepa1c1c7 cells assessed as increase in NQO1 activity at 0.625 uM; type: cell-based; details: filed as activator
[13] = target: T1, Nuclear factor erythroid 2-related factor 2 (Mus musculus); test: Activation of Nrf2 in mouse Hepa1c1c7 cells assessed as increase in NQO1 activity at 1.25 uM; type: cell-based; details: filed as activator
[14] = target: T1, Nuclear factor erythroid 2-related factor 2 (Mus musculus); test: Activation of Nrf2 in mouse Hepa1c1c7 cells assessed as increase in NQO1 activity at 5 uM; type: cell-based; details: filed as activator
[15] = Effect on PLT level in albino mouse at 50 mg/kg, ip administered for 5 days (reference value: 1135 +/- 91.52 10^3/UL); type: functional; details: time 5 day
[16] = target: T1, Nuclear factor erythroid 2-related factor 2 (Mus musculus); test: Activation of Nrf2 in mouse Hepa1c1c7 cells assessed as increase in NQO1 activity at 0.8 uM; type: cell-based; details: filed as activator
Mus musculus [17] = test: Radioprotective activity in albino mouse assessed as Nrf2 level at 50 mg/kg, ip administered for 5 days and on day 5 irradiated with gamma radiation and measured after 3 days (reference value: 23 %); type: functional; details: time 8 day
[18] = Toxicity in albino mouse assessed as effect on liver weight at 50 mg/kg, ip administered for 5 days; type: organism-based; details: in vivo, 120 h, time 5 day
Mus musculus [19] = test: Radioprotective activity in albino mouse assessed as organism survival rate at 50 mg/kg, ip administered for 5 days and on day 5 irradiated with gamma radiation and measured after 3 days; type: functional, organism-based; details: time 8.0 day
Mus musculus [20] = test: Radioprotective activity in albino mouse assessed as HGB level at 50 mg/kg, ip administered for 5 days and on day 5 irradiated with gamma radiation and measured after 3 days (reference value: 7.98 +/- 0.24 g/dL); type: functional; details: time 8 day
[21] = target: T1, Nuclear factor erythroid 2-related factor 2 (Mus musculus); test: Activation of Nrf2 in mouse Hepa1c1c7 cells assessed as increase in NQO1 activity at 0.4 uM; type: cell-based; details: filed as activator
[22] = target: T1, Nuclear factor erythroid 2-related factor 2 (Mus musculus); test: Activation of Nrf2 in mouse Hepa1c1c7 cells assessed as concentration required to double induction to increase in NQO1 activity; type: cell-based; details: filed as activator
[23] = target: T1, Nuclear factor erythroid 2-related factor 2 (Mus musculus); test: Activation of Nrf2 in mouse Hepa1c1c7 cells assessed as increase in NQO1 activity at 3.125 uM; type: cell-based; details: filed as activator
Mus musculus [24] = test: Radioprotective activity in albino mouse assessed as MDA level at 50 mg/kg, ip administered for 5 days and on day 5 irradiated with gamma radiation and measured after 3 days (reference value: 86 %); type: functional; details: time 8 day
Mus musculus [25] = test: Radioprotective activity in albino mouse assessed as ROS level at 50 mg/kg, ip administered for 5 days and on day 5 irradiated with gamma radiation and measured after 3 days (reference value: 39 %); type: functional; details: time 8 day
Mus musculus [26] = test: Radioprotective activity in albino mouse assessed as WBC level at 50 mg/kg, ip administered for 5 days and on day 5 irradiated with gamma radiation and measured after 3 days (reference value: 0.40 +/- 0.03 10^3/UL); type: functional; details: time 8 day
Mus musculus [27] = test: Radioprotective activity in albino mouse assessed as HCT level at 50 mg/kg, ip administered for 5 days and on day 5 irradiated with gamma radiation and measured after 3 days (reference value: 23.05 +/- 0.98 %); type: functional; details: time 8 day
[28] = Effect on HCT level in albino mouse at 50 mg/kg, ip administered for 5 days (reference value: 33.45 +/- 1.82 %); type: functional; details: time 5 day
[29] = Effect on WBC level in albino mouse at 50 mg/kg, ip administered for 5 days (reference value: 2.54 +/- 0.16 10^3/UL); type: functional; details: time 5 day
Mus musculus [30] = test: Radioprotective activity in albino mouse assessed as NQO1 level at 50 mg/kg, ip administered for 5 days and on day 5 irradiated with gamma radiation and measured after 3 days (reference value: 192 %); type: functional; details: time 8 day
Mus musculus [31] = test: Radioprotective activity in albino mouse assessed as effect on body weight at 50 mg/kg, ip administered for 5 days and on day 5 irradiated with gamma radiation and measured after 3 days; type: functional, organism-based; details: time 8.0 day
Mus musculus [32] = test: Radioprotective activity in albino mouse assessed as PLT level at 50 mg/kg, ip administered for 5 days and on day 5 irradiated with gamma radiation and measured after 3 days (reference value: 500.3 +/- 49.73 10^3/UL); type: functional; details: time 8 day
[33] = Toxicity in albino mouse assessed as lethality; details: in vivo
[34] = target: T1, Nuclear factor erythroid 2-related factor 2 (Mus musculus); test: Activation of Nrf2 in mouse Hepa1c1c7 cells assessed as increase in NQO1 activity at 50 uM; type: cell-based; details: filed as activator
[35] = Effect on RBC level in albino mouse at 50 mg/kg, ip administered for 5 days (reference value: 7.17 +/- 0.15 10^6/UL); type: functional; details: time 5 day
[36] = target: T1, Nuclear factor erythroid 2-related factor 2 (Mus musculus); test: Activation of Nrf2 in mouse Hepa1c1c7 cells assessed as increase in NQO1 activity at 25 uM; type: cell-based; details: filed as activator
[37] = target: T1, Nuclear factor erythroid 2-related factor 2 (Mus musculus); test: Activation of Nrf2 in mouse Hepa1c1c7 cells assessed as increase in NQO1 activity at 6.25 uM; type: cell-based; details: filed as activator
[38] = target: T1, Nuclear factor erythroid 2-related factor 2 (Mus musculus); test: Activation of Nrf2 in mouse Hepa1c1c7 cells assessed as increase in NQO1 activity at 1.6 uM; type: cell-based; details: filed as activator
[39] = target: T1, Nuclear factor erythroid 2-related factor 2 (Mus musculus); test: Activation of Nrf2 in mouse Hepa1c1c7 cells assessed as increase in NQO1 activity at 12.5 uM; type: cell-based; details: filed as activator
[40] = Effect on HGB level in albino mouse at 50 mg/kg, ip administered for 5 days (reference value: 10.75 +/- 0.63 g/dL); type: functional; details: time 5 day
Mus musculus [41] = test: Radioprotective activity in albino mouse assessed as RBC level at 50 mg/kg, ip administered for 5 days and on day 5 irradiated with gamma radiation and measured after 3 days (reference value: 5.89 +/- 0.27 10^6/UL); type: functional; details: time 8 day
[42] = target: T1, Nuclear factor erythroid 2-related factor 2 (Mus musculus); test: Activation of Nrf2 in mouse Hepa1c1c7 cells assessed as increase in NQO1 activity at 20 uM; type: cell-based; details: filed as activator
[43] = target: T1, Nuclear factor erythroid 2-related factor 2 (Mus musculus); test: Activation of Nrf2 in mouse Hepa1c1c7 cells assessed as increase in NQO1 activity at 40 uM; type: cell-based; details: filed as activator
[44] = target: T1, Nuclear factor erythroid 2-related factor 2 (Mus musculus); test: Activation of Nrf2 in mouse Hepa1c1c7 cells assessed as increase in NQO1 activity at 10 uM; type: cell-based; details: filed as activator

IC50 [1]: 165 µM
Activity [2]: 1.19
Activity [3]: 1.03
Activity [4]: 1.07
Activity [5]: 1
Activity [6]: 1
Activity [7]: 0.99
Activity [8]: 1.35
Activity [9]: 0.99
SMILES: NS(=O)(=O)c1ccc(-n2c(SCC(=O)Nc3cccnc3)nc3c(I)cc(I)cc3c2=O)cc1

IC50 [1]: 85 µM
Activity [10]: 0.96
Activity [11]: 0.76
Activity [12]: 0.94
Activity [13]: 0.83
Activity [14]: 0.51
SMILES: NS(=O)(=O)c1ccc(-n2c(SCC(=O)Nc3ccccn3)nc3c(I)cc(I)cc3c2=O)cc1

SMILES: NS(=O)(=O)c1ccc(-n2c(SCC(=O)Nc3cccnc3Cl)nc3c(I)cc(I)cc3c2=O)cc1
Activity [15]: 1030 10^3 /uL
Activity [16]: 0.98
Activity (Mus musculus [17]): 15%
Activity [18]: Non-Toxic
Activity (Mus musculus [19]): Active
Activity (Mus musculus [20]): 9.9 g/dL
Activity [21]: 0.99
CD [22]: 25 µM
IC50 [1]: 28 µM
Activity [23]: 1.09
Activity (Mus musculus [24]): 32%
Activity (Mus musculus [25]): 23%
Activity (Mus musculus [26]): 1.34 10^3 /uL
Activity (Mus musculus [27]): 25.83%
Activity [28]: 26.86%
Activity [29]: 2.08 10^3 /uL
Activity (Mus musculus [30]): 37%
Activity (Mus musculus [31]): Active
Activity (Mus musculus [32]): 956.8 10^3 /uL
LD50 [33]: 500 mg/kg
Activity [34]: 2.65
Activity [35]: 6.13 10^6 /uL
Activity [36]: 2.13
Activity [37]: 1.17
Activity [38]: 1
Activity [39]: 1.38
Activity [40]: 8.54 g/dL
Activity (Mus musculus [41]): 6.37 10^6 /uL

Activity [42]: 1.07
IC50 [1]: 55.6 µM
Activity [10]: 1.02
Activity [11]: 1.04
Activity [12]: 1.02
Activity [43]: 1.12
Activity [44]: 1.04
Activity [13]: 1.03
Activity [14]: 1.05
SMILES: NS(=O)(=O)c1ccc(-n2c(SCC(=O)Nc3ccc(I)cc3)nc3c(I)cc(I)cc3c2=O)cc1

— ChEMBL document CHEMBL4819062, “Novel iodinated quinazolinones bearing sulfonamide as new scaffold targeting radiation induced oxidative stress” (Bioorg Med Chem Lett, 2021)
